The target of one assay is T1, M1 muscarinic receptor (Homo sapiens, UniProt P11229).
T1 construct: expressed in transfected cells; host or cells: CHO (M1-CHO)
T1 sequence (P11229 1-460): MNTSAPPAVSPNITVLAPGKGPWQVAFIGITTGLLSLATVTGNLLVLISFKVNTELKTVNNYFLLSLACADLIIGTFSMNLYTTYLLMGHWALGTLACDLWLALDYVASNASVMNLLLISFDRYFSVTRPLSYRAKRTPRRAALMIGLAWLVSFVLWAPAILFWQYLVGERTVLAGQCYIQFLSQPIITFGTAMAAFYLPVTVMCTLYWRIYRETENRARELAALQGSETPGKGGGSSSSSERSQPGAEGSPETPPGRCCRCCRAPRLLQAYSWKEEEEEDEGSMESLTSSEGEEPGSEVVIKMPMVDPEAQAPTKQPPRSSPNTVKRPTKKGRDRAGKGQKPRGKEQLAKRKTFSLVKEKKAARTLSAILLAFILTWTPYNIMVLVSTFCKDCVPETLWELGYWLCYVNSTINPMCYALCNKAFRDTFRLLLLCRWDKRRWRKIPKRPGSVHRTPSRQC
Briefly: Functional mobilization of intracellular calcium (FLIPR) in M1-CHO cells. To be noted: Table 4; for Emax: 100% efficacy is the maximum response obtained with the Carbachol control; for M1 Activity: modulating M1 receptor. Format: cell-based. In outline:
(§1)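 Two modes: direct compound addition for agonism, or 15 min compound pre-incubation (or co-application) before carbachol at EC80 for inhibition. Calcium signal from Fluo-3 AM or Calcium 3 dye in CHO cells, 1 mM probenecid, pH 7.4, read 60 sec at 488/540 nm; DMSO 0.5% final.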

The next assay addresses T2, M4 muscarinic receptor (Homo sapiens, UniProt P08173).
T2 construct: expressed in transfected cells; host or cells: CHO (M4-CHO)
T2 sequence (P08173 1-479): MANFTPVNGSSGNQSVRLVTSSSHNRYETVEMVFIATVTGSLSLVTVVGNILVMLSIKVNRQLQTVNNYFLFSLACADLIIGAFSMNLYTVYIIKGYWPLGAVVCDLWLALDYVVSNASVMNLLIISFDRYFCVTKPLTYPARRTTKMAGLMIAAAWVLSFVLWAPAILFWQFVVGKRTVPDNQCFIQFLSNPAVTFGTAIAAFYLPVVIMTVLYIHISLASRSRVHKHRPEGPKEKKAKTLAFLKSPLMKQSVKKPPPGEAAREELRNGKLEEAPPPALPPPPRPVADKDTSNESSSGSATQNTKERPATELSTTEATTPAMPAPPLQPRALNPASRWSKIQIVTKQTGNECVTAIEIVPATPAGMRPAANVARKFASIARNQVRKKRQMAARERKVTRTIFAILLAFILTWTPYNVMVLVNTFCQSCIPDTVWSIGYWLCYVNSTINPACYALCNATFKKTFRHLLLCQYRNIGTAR
Briefly: Functional mobilization of intracellular calcium (FLIPR) in M4-CHO cells. It is filed as cell-based. To be noted: Table 4; for Emax: 100% efficacy is the maximum response obtained with the Carbachol control; for M4 Activity: modulating M4 receptor. In outline:
as §1
On the technique in general: Calcium flux is commonly read through the fluorescence of an indicator in the cells.

SMILES strings stand for the structures.

The term Emax denotes the size of the effect at its maximum, as opposed to the concentration needed.

Take `C#CCCC(=O)N1CCC(N2CCC3(CC2)CN(C(=O)N(C)C)c2ccc(F)cc23)CC1` [compound 553]: at M1 muscarinic receptor, the Emax is 25 to 100% and the “M1 Activity” value is “xxx (activity was measured to be less than 2.0 μM)”. At M4 muscarinic receptor, the Emax was below 25% and the “M4 Activity” value is given as “xxx (activity was measured to be less than 2.0 μM)”.

On to `CCOC(=O)N1CCC(CN2CCC3(CC2)CN(C(C)=O)c2ccc(C(C)C)cc23)CC1` [compound 555], for which, on M1 muscarinic receptor, the Emax lay within 25 to 100% and the “M1 Activity” value is “xxx (activity was measured to be less than 2.0 μM)”. Also, on M4 muscarinic receptor, the Emax lay within 25 to 100%; the “M4 Activity” value was “xx (activity was measured to be between 2.0 μM and 5.0 μM)”.

Regarding `CC(=O)N1CC2(CCN(C3CCN(c4cncc(-c5ccc(F)cc5)n4)CC3)CC2)c2ccccc21` [compound 556], on M1 muscarinic receptor, the maximal effect (Emax) lay within 25 to 100% and the “M1 Activity” value is on record as “x (activity was measured to be greater than 5.0 μM)”. On M4 muscarinic receptor, the Emax is below 25% and the “M4 Activity” value was “x (activity was measured to be greater than 5.0 μM)”.

Consider `CC(C)OC(=O)N1CC[C@@H](CN2CCC3(CC2)CN(C(=O)N(C)C)c2ccc(F)cc23)C1` [compound 558], for which, at M1 muscarinic receptor, the Emax is 25 to 100% and the “M1 Activity” value was “xxx (activity was measured to be less than 2.0 μM)”. Also, at M4 muscarinic receptor, the Emax lay within 25 to 100% and the “M4 Activity” value was “xxx (activity was measured to be less than 2.0 μM)”.

For `CCOC(=O)N1CCC(N2CCC3(CC2)CN(C(C)=O)c2c(-c4ccoc4)cccc23)CC1` [compound 559], on M1 muscarinic receptor, the Emax was 25 to 100% and the “M1 Activity” value was “xxx (activity was measured to be less than 2.0 μM)”. Besides, at M4 muscarinic receptor, the Emax lay within 25 to 100% and the “M4 Activity” value is “x (activity was measured to be greater than 5.0 μM)”.

Regarding `CCOC(=O)N1CCC(N2CCC3(CC2)CN(C(C)=O)c2cccc(OC)c23)CC1` [compound 560], at M1 muscarinic receptor, the maximal effect (Emax) lay in the range of 25 to 100% and the “M1 Activity” value is “xxx (activity was measured to be less than 2.0 μM)”. At M4 muscarinic receptor, the Emax is below 25% and the “M4 Activity” value was “x (activity was measured to be greater than 5.0 μM)”.

`CN(C)C(=O)N1CC2(CCN(C3CCN(c4ccsc4)CC3)CC2)c2cc(F)ccc21` [compound 561]: on M1 muscarinic receptor, the Emax is 25 to 100% and the “M1 Activity” value is listed as “x (activity was measured to be greater than 5.0 μM)”. In addition, on M4 muscarinic receptor, the Emax was 25 to 100%; the “M4 Activity” value was “xx (activity was measured to be between 2.0 μM and 5.0 μM)”.

`C#Cc1ccc2c(c1)C1(CCN(C3CCN(C(=O)OCC)CC3)CC1)CN2C(C)=O` [compound 563]: at M1 muscarinic receptor, the Emax was above 100% and the “M1 Activity” value is listed as “xxx (activity was measured to be less than 2.0 μM)”. On M4 muscarinic receptor, the Emax was in the range of 25 to 100% and the “M4 Activity” value is listed as “xxx (activity was measured to be less than 2.0 μM)”.

`C#CCOC(=O)N1CC[C@@H](CN2CCC3(CC2)CN(C(C)=O)c2cccc(C)c23)C1` [compound 564]: at M1 muscarinic receptor, the Emax was in the range of 25 to 100% and the “M1 Activity” value is listed as “xxx (activity was measured to be less than 2.0 μM)”. At M4 muscarinic receptor, the Emax is 25 to 100% and the “M4 Activity” value is listed as “xxx (activity was measured to be less than 2.0 μM)”.

In the case of `C#CCCOC(=O)N1CCC(N2CCC3(CC2)CN(CCOC)c2ccc(F)cc23)CC1` [compound 565], at M1 muscarinic receptor, the Emax fell in the range of 25 to 100% and the “M1 Activity” value is “xxx (activity was measured to be less than 2.0 μM)”. Further, on M4 muscarinic receptor, the maximal effect (Emax) lay in the range of 25 to 100% and the “M4 Activity” value is reported as “xxx (activity was measured to be less than 2.0 μM)”.

As to `COc1cc2c(cc1OC)C1(CCN(C3CC(C)(C)CC(C)(C)C3)CC1)CC2NC(C)=O` (stereo not drawn) [compound 566], at M1 muscarinic receptor, the Emax was below 25% and the “M1 Activity” value is on record as “x (activity was measured to be greater than 5.0 μM)”. Further, on M4 muscarinic receptor, the maximal response (Emax) was below 25% and the “M4 Activity” value was “x (activity was measured to be greater than 5.0 μM)”.

As to `CCOC(=O)N1CCC(N2CCC3(CC2)CN(c2ncccn2)c2ccc(F)cc23)CC1` [compound 567], at M1 muscarinic receptor, the Emax fell in the range of 25 to 100% and the “M1 Activity” value is listed as “xxx (activity was measured to be less than 2.0 μM)”. For the same compound, at M4 muscarinic receptor, the Emax was 25 to 100% and the “M4 Activity” value is on record as “xxx (activity was measured to be less than 2.0 μM)”.

Regarding `CC(=O)N[C@H]1CCC2(CCN(CCC3CCCCC3)CC2)c2ccccc21` [compound 568], at M1 muscarinic receptor, the Emax lay in the range of 25 to 100% and the “M1 Activity” value is given as “xxx (activity was measured to be less than 2.0 μM)”. Also, at M4 muscarinic receptor, the Emax was below 25% and the “M4 Activity” value is listed as “xxx (activity was measured to be less than 2.0 μM)”.

For `COc1ccc([C@@H](C)N[C@H]2CC3(CCN(CC4CC5C=CC4C5)CC3)c3cc(Cl)ccc32)cc1` (stereo partly drawn) [compound 569], at M1 muscarinic receptor, the Emax lay in the range of 25 to 100%; the “M1 Activity” value is “xx (activity was measured to be between 2.0 μM and 5.0 μM)”. In addition, on M4 muscarinic receptor, the Emax fell in the range of 25 to 100%; the “M4 Activity” value is “xx (activity was measured to be between 2.0 μM and 5.0 μM)”.

`CN(C)C(=O)N1CC2(CCN(C[C@@H]3CCN(c4nccs4)C3)CC2)c2cc(F)ccc21` [compound 570]: on M1 muscarinic receptor, the Emax is 25 to 100%; the “M1 Activity” value was “xx (activity was measured to be between 2.0 μM and 5.0 μM)”. At M4 muscarinic receptor, the maximal response (Emax) was in the range of 25 to 100% and the “M4 Activity” value is listed as “xxx (activity was measured to be less than 2.0 μM)”.

As to `COCCN1CC2(CCN(C3CCN(C(=O)OC(C)C)CC3)CC2)c2cc(F)ccc21` [compound 571], on M1 muscarinic receptor, the Emax was 25 to 100% and the “M1 Activity” value was “xxx (activity was measured to be less than 2.0 μM)”. On M4 muscarinic receptor, the Emax lay within 25 to 100% and the “M4 Activity” value is “xxx (activity was measured to be less than 2.0 μM)”.

As for `Cc1noc(C)c1C(=O)N1CCC(N2CCC3(CC2)CN(C(=O)N(C)C)c2ccc(F)cc23)CC1` [compound 572], on M1 muscarinic receptor, the Emax fell in the range of 25 to 100%; the “M1 Activity” value is “xx (activity was measured to be between 2.0 μM and 5.0 μM)”. In addition, on M4 muscarinic receptor, the Emax is below 25% and the “M4 Activity” value is listed as “x (activity was measured to be greater than 5.0 μM)”.

With `C#CCOC(=O)N1CC[C@H](CN2CCC3(CC2)CN(C(C)=O)c2cccc(C)c23)C1` [compound 573], at M1 muscarinic receptor, the Emax was in the range of 25 to 100% and the “M1 Activity” value is given as “xxx (activity was measured to be less than 2.0 μM)”. At M4 muscarinic receptor, the maximal response (Emax) lay in the range of 25 to 100% and the “M4 Activity” value is “xxx (activity was measured to be less than 2.0 μM)”.

In the case of `C#CC(=O)N1CCC(N2CCC3(CC2)CN(C(=O)N(C)C)c2ccc(F)cc23)CC1` [compound 574], at M1 muscarinic receptor, the maximal response (Emax) was in the range of 25 to 100%; the “M1 Activity” value was “xx (activity was measured to be between 2.0 μM and 5.0 μM)”. On M4 muscarinic receptor, the Emax lay within 25 to 100% and the “M4 Activity” value was “xxx (activity was measured to be less than 2.0 μM)”.

Take `CC(=O)N[C@H]1CCC2(CCN(CCC3CCN(C(=O)OC(C)(C)C)CC3)CC2)c2ccccc21` [compound 575]: at M1 muscarinic receptor, the Emax was below 25% and the “M1 Activity” value is recorded as “x (activity was measured to be greater than 5.0 μM)”. Further, at M4 muscarinic receptor, the Emax was below 25% and the “M4 Activity” value is “x (activity was measured to be greater than 5.0 μM)”.

On to `O=C(N[C@H]1CCC2(CCN(CC3CC4C=CC3C4)CC2)c2ccccc21)C1CC1` (stereo partly drawn) [compound 576], for which, at M1 muscarinic receptor, the Emax lay within 25 to 100% and the “M1 Activity” value is listed as “xxx (activity was measured to be less than 2.0 μM)”. At M4 muscarinic receptor, the Emax lay within 25 to 100% and the “M4 Activity” value is “xxx (activity was measured to be less than 2.0 μM)”.

(Values after patent US7786141B2 (Vertex Pharmaceuticals Incorporated, priority 2004, dated 2010).)
